Assay: xn = mol fraction of the nth substance listed
Conditions: Liquid, Vibrating tube method

[Cl-].[Cs+] [cesium chloride] + CO
mass density [kg/m3]
Conditions	288.15 K	293.15 K	298.15 K	308.15 K	318.15 K
x1 = 0.0012	800.8	796.1	791.3	781.8	772.3
x1 = 0.0025	805.5	800.8	796	786.5	776.9
x1 = 0.0037	809.9	805.2	800.5	791	781.4
x1 = 0.0049	814.5	809.8	805.1	795.5	785.9

[Cl-].[Cs+] [cesium chloride] + O
mass density [kg/m3]
Conditions	x1 = 0.0099	x1 = 0.0196	x1 = 0.0292	x1 = 0.0385	x1 = 0.0536	x1 = 0.069
288.15 K	1069.7	1137.3	1203.3	1266.2	1367	1466.9
293.15 K	1068.4	1135.8	1201.6	1264.2	1364.6	1464.1
298.15 K	1067	1134.1	1199.6	1262	1362.1	1461.3
308.15 K	1063.5	1130.1	1195.2	1257.3	1356.7	1455.3
318.15 K	1059.2	1125.5	1190.2	1252	1350.9	1448.6

[Cl-].[Na+] [sodium chloride] + CO
mass density [kg/m3]
Conditions	x1 = 0.001	x1 = 0.002	x1 = 0.003	x1 = 0.004	x1 = 0.005	x1 = 0.006	x1 = 0.007
288.15 K	797.4	798.9	800.1	801.4	802.9	804.1	805.7
293.15 K	792.7	794.3	795.5	796.8	798.3	799.5	801.1
298.15 K	788	789.6	790.8	792.1	793.7	794.9	796.4
308.15 K	778.6	780.2	781.4	782.7	784.3	785.5	787.1
318.15 K	769	770.7	771.9	773.3	774.8	776.1	777.7

[Cl-].[Na+] [sodium chloride] + O
mass density [kg/m3]
Conditions	x1 = 0.0099	x1 = 0.0196	x1 = 0.0291	x1 = 0.0385	x1 = 0.0476	x1 = 0.0566	x1 = 0.0654
288.15 K	1022.2	1044.7	1065.8	1086.7	1107.4	1127.2	1147.1
293.15 K	1021	1043.2	1064.1	1084.8	1105.4	1125	1144.8
298.15 K	–	1041.6	1062.3	1082.8	1103.3	1122.7	1142.4
308.15 K	1016.2	1037.8	1058.2	1078.5	1098.7	1118	1137.4
318.15 K	1012.1	1033.5	1053.6	1073.7	1093.8	1112.9	1132.2

— the NIST ThermoML archive (doi:10.1016/j.fluid.2017.10.034)
